# Results from ChEMBL document CHEMBL1135851, “Synthesis and biological evaluation of pyridine-modified analogues of 3-(2-aminoethoxy)pyridine as novel nicotinic receptor ligands” (Bioorg Med Chem Lett, 2002).
# What was measured:
# [1] = molecular target: Neuronal acetylcholine receptor; experiment: Ability to displace radioligand [3H](-)-cytisine from Nicotinic acetylcholine receptor in rat brain membrane.; type: cell membranes
# [2] = Ability to displace radioligand [3H](-)-cytisine from Neuronal nicotinic receptor in rat brain membrane was determined.; type: cell membranes
Compound,Ki [1],Ki [2]
C[C@@H](N)COc1ccc(Cl)nc1,5.3 nM,–
C[C@@H](N)COc1ccc(F)nc1,6.6 nM,–
N[C@H](COc1cnc(Cl)c(/C=C/c2ccncc2)c1)Cc1ccccc1,9.9 nM,–
NCCOc1cncc(Cl)c1,140 nM,–
CC[C@H](N)COc1ccc(Cl)nc1,15 nM,–
CN[C@H](C)COc1ccc(F)nc1,11 nM,–
C[C@@H](N)COc1cnc(Cl)c(Br)c1,1.5 nM,–
CN[C@@H](C)COc1ccc(Cl)nc1,41 nM,–
C[C@@H](N)COc1cnc(Cl)c(/C=C/c2ccncc2)c1,0.081 nM,–
Cc1ccc(OCCN(C)C)cn1,140 nM,–
CNCCOc1cccnc1,17 nM,–
C[C@@H](COc1cnc(Cl)c(/C=C/c2ccncc2)c1)N(C)C,0.37 nM,–
CC[C@@H](COc1cnc(Cl)c(/C=C/c2ccncc2)c1)N(C)C,3.6 nM,–
CC[C@H](N)COc1cnc(Cl)c(/C=C/c2ccncc2)c1,0.18 nM,–
CC[C@H](N)COc1ccc(F)nc1,39 nM,–
C[C@@H](COc1cnc(Cl)c(Br)c1)N(C)C,31 nM,–
C[C@H](COc1ccc(F)nc1)N(C)C,70 nM,–
CN[C@H](COc1cccnc1)Cc1ccccc1,690 nM,–
CC[C@@H](COc1ccc(F)nc1)NC,220 nM,–
CN(C)[C@H](COc1cnc(Cl)c(/C=C/c2ccncc2)c1)Cc1ccccc1,4.6 nM,–
CNCCOc1cnc(Cl)c(Cl)c1,13 nM,–

Compound,Ki [1],Ki [2]
CN(C)CCOc1cncc(Cl)c1,74 nM,–
CNCCOc1ccc(Cl)nc1,22 nM,–
CN[C@H](COc1cnc(Cl)c(/C=C/c2ccncc2)c1)Cc1ccccc1,2.6 nM,–
C[C@@H](COc1ccc(F)nc1)N(C)C,100 nM,–
C[C@H](N)COc1ccc(F)nc1,8.7 nM,–
CN[C@@H](C)COc1cnc(Cl)c(Br)c1,11 nM,–
CNCCOc1cnc(Cl)c(Br)c1,14.3 nM,–
CN[C@@H](C)COc1ccc(F)nc1,69 nM,–
Cc1cc(OC[C@H](C)N)cnc1Cl,0.52 nM,–
Cc1cc(OC[C@@H](C)N(C)C)cnc1Cl,7.2 nM,–
CN[C@H](COc1cnc(Cl)c(Br)c1)Cc1ccccc1,85 nM,–
CC[C@H](N)COc1cnc(Cl)c(Br)c1,15 nM,–
COc1ccc(OCCN(C)C)cn1,406 nM,–
CN(C)CCOc1cncc([N+](=O)[O-])c1,260 nM,–
CN[C@@H](C)COc1cnc(Cl)c(C)c1,5.5 nM,–
CN[C@H](C)COc1ccc(Cl)nc1,5.9 nM,–
Cc1cc(OC[C@@H](C)N)cnc1Cl,0.98 nM,–
CNCCOc1cncc([N+](=O)[O-])c1,560 nM,–
CN(C)CCOc1cncc(Br)c1,50 nM,–
Cc1cc(OC[C@H](C)N(C)C)cnc1Cl,9.6 nM,–
CN[C@H](C)COc1cnc(Cl)c(C)c1,0.57 nM,–

Compound,Ki [1],Ki [2]
CN[C@H](C)COc1cnc(Cl)c(Br)c1,1.5 nM,–
C[C@H](COc1cnc(Cl)c(Br)c1)N(C)C,12 nM,–
N[C@H](COc1cnc(Cl)c(Br)c1)Cc1ccccc1,100 nM,–
CN(C)CCOc1cncc(C(F)(F)F)c1,250 nM,–
CN(C)[C@@H](CCCl)COc1cncc(C(F)(F)F)c1,5.5 nM,–
CNCCOc1cncc(Cl)c1,37 nM,–
C[C@H](COc1cnc(Cl)c(/C=C/c2ccncc2)c1)N(C)C,0.1 nM,–
CNCCOc1ccc(OC)nc1,620 nM,–
CN(C)CCOc1ccc(Cl)nc1,79 nM,–
CN(C)CCOc1cnc(Cl)c(Cl)c1,16 nM,–
CNCCOc1ccc(C)nc1,43 nM,–
CN(C)CCOc1cnc(Cl)c(Br)c1,7.1 nM,–
CN[C@H](C)COc1cnc(Cl)c(/C=C/c2ccncc2)c1,0.077 nM,–
C[C@H](N)COc1cnc(Cl)c(/C=C/c2ccncc2)c1,0.076 nM,–
CN(C)[C@H](COc1cnc(Cl)c(Br)c1)Cc1ccccc1,320 nM,–
CNCCOc1cncc(N)c1,27 nM,–
C[C@H](N)COc1ccc(Cl)nc1,4.5 nM,–
C[C@H](N)COc1cnc(Cl)c(Br)c1,1.5 nM,–
Clc1ccc(OC[C@H]2CCN2)cn1 [TEBANICLINE],–,0.05 nM
